Source: the supplement of paper PMC10307832

Legend:
Assay in all cases: relative viability (nuclei count vs DMSO), 5 days (fraction); higher = more cells survive
[1] = compound: CC1=C(C(=O)N2C=CSC2=N1)CCN3CCC(=C(C4=CC=CC=C4)C5=CC=C(C=C5)F)CC3 + N=C(N)NC(=N)NCCc1ccccc1 [Phenformin] (partner 250 µM)
Method in brief: (§1)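 Relative viability divides the nuclei count in treated wells by that in vehicle wells. Lung cancer cell lines were seeded in 1536-well plates, dosed by pin tool the next day, and fixed and stained after 5 days in one step with final 0.05% Triton X-100, 1% formaldehyde and 1 ug/ml Hoechst. Dosing was a single drug or a fixed anchor-drug dose plus five library-drug doses (not always all listed) in √10 steps, and values are medians of duplicate plates imaged at 4×.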

[2] = compound: CC1=C(C(=O)N2C=CSC2=N1)CCN3CCC(=C(C4=CC=CC=C4)C5=CC=C(C=C5)F)CC3 + Nc1nc2[nH]cc(CCc3ccc(C(=O)N[C@@H](CCC(=O)O)C(=O)O)cc3)c2c(=O)[nH]1 [Pemetrexed] (partner 0.2 µM)
Method in brief: as §1

[3] = compound: CC1=C(C(=O)N2C=CSC2=N1)CCN3CCC(=C(C4=CC=CC=C4)C5=CC=C(C=C5)F)CC3 + CC(=O)Nc1cccc(-n2c(=O)n(C3CC3)c(=O)c3c(Nc4ccc(I)cc4F)n(C)c(=O)c(C)c32)c1 [Trametinib] (partner 0.02 µM)
Method in brief: as §1

[4] = compound: CC1=C(C(=O)N2C=CSC2=N1)CCN3CCC(=C(C4=CC=CC=C4)C5=CC=C(C=C5)F)CC3 + CC1(C)CCC(c2ccc(Cl)cc2)=C(CN2CCN(c3ccc(C(=O)NS(=O)(=O)c4ccc(N[C@H](CCN5CCOCC5)CSc5ccccc5)c(S(=O)(=O)C(F)(F)F)c4)cc3)CC2)C1 [Navitoclax] (partner 0.5 µM)
Method in brief: as §1

| Cell Line | relative viability ([1]; first compound 0.08 µM) | relative viability ([1]; first compound 0.253 µM) | relative viability ([1]; first compound 0.8 µM) | relative viability ([1]; first compound 2.53 µM) | relative viability ([1]; first compound 8 µM) | relative viability ([2]; first compound 0.08 µM) | relative viability ([2]; first compound 0.253 µM) | relative viability ([2]; first compound 0.8 µM) | relative viability ([2]; first compound 2.53 µM) | relative viability ([2]; first compound 8 µM) | relative viability ([3]; first compound 0.08 µM) | relative viability ([3]; first compound 0.253 µM) | relative viability ([3]; first compound 0.8 µM) | relative viability ([3]; first compound 2.53 µM) | relative viability ([3]; first compound 8 µM) | relative viability ([4]; first compound 0.08 µM) | relative viability ([4]; first compound 0.253 µM) | relative viability ([4]; first compound 0.8 µM) | relative viability ([4]; first compound 2.53 µM) | relative viability ([4]; first compound 8 µM) |
| --- | --- | --- | --- | --- | --- | --- | --- | --- | --- | --- | --- | --- | --- | --- | --- | --- | --- | --- | --- | --- |
| HCC-78 | 0.689 | 0.76 | 0.695 | 0.691 | 0.531 | 0.798 | 0.867 | 0.935 | 0.923 | 0.66 | 0.818 | 0.837 | 0.941 | 0.727 | 0.616 | 0.834 | 0.786 | 0.924 | 0.838 | 0.608 |
| NCI-H2170 | 0.42 | 0.42 | 0.37 | 0.417 | 0.39 | 0.278 | 0.269 | 0.28 | 0.271 | 0.248 | 1.21 | 0.894 | 0.964 | 0.792 | 0.637 | 0.515 | 0.605 | 0.649 | 0.492 | 0.58 |
| LCLC-97TM1 | 0.435 | 0.434 | 0.447 | 0.448 | 0.411 | 0.196 | 0.19 | 0.173 | 0.198 | 0.196 | 0.183 | 0.18 | 0.23 | 0.172 | 0.151 | 0.263 | 0.306 | 0.347 | 0.537 | 0.249 |
| NCI-H2126 | 0.518 | 0.541 | 0.525 | 0.555 | 0.517 | 0.587 | 0.758 | 0.713 | 0.721 | 0.511 | 0.591 | 0.514 | 0.58 | 0.607 | 0.466 | 0.835 | 0.839 | 0.846 | 0.971 | 0.799 |
| NCI-H1734 | 0.419 | 0.378 | 0.371 | 0.405 | 0.322 | 0.487 | 0.452 | 0.391 | 0.424 | 0.399 | 0.741 | 0.598 | 0.691 | 0.688 | 0.512 | 0.732 | 0.818 | 0.966 | 0.795 | 0.493 |
| EKVX | 0.211 | 0.26 | 0.236 | 0.207 | 0.221 | 0.366 | 0.382 | 0.436 | 0.432 | 0.35 | 0.354 | 0.42 | 0.358 | 0.314 | 0.292 | 0.718 | 0.775 | 0.961 | 0.848 | 0.741 |
| NCI-H2085 | 0.769 | 0.699 | 0.661 | 0.762 | 0.591 | 0.966 | 0.964 | 0.759 | 0.955 | 0.883 | 0.484 | 0.52 | 0.491 | 0.66 | 0.452 | 1.12 | 1.1 | 1.21 | 1.1 | 0.908 |
| NCI-H1437 | 0.303 | 0.362 | 0.334 | 0.288 | 0.308 | 0.338 | 0.371 | 0.323 | 0.35 | 0.235 | 0.385 | 0.56 | 0.588 | 0.601 | 0.28 |  | 0.924 | 1.09 | 1.44 | 0.693 |
